“And” between values parts separate entries of the source, which are not always exact repeats. Identical values can stand only once. Like-named read-outs stand apart in the source and are kept apart here.
Assays:
Assay type in all cases: cell-based
[1] = target: T1, protein kinases (human kinome) (Homo sapiens, UniProt O75385); conditions: for logFC: ULK1 (O75385) protein abundance, degrader vs DMSO, down; for logFC ULK1: ULK1 O75385
T1 sequence (O75385 1-1050): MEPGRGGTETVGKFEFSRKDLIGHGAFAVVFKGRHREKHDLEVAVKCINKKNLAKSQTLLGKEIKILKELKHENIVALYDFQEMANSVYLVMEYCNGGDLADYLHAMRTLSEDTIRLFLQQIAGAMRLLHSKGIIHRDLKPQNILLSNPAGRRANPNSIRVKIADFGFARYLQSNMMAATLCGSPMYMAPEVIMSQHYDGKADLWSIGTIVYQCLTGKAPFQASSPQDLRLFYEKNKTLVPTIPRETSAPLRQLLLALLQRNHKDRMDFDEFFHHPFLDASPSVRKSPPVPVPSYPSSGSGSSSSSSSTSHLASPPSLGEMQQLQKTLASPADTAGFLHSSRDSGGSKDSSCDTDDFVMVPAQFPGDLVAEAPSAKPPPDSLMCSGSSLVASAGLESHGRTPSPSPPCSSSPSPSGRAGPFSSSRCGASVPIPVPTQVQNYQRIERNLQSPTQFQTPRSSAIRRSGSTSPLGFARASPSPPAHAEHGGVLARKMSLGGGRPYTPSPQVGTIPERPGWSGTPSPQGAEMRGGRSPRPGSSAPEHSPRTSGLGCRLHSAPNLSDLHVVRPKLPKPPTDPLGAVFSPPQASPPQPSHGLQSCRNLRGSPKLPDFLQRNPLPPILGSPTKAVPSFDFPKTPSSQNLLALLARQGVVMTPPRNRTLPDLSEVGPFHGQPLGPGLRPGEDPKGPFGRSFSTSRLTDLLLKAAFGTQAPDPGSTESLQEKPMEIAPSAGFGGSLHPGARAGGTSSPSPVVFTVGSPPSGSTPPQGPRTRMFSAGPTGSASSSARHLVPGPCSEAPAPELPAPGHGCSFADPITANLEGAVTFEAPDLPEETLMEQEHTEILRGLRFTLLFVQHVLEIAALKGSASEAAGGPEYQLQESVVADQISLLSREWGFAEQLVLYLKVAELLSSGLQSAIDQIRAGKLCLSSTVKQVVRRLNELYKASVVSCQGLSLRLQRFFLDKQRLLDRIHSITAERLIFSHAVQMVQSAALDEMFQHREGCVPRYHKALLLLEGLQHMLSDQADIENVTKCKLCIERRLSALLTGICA

[2] = target: protein kinases (human kinome) (Homo sapiens, UniProt Q9H0K1); conditions: for logFC of SIK2: Accession Q9H0K1; for logFC SIK2 (Q9H0K1): direction of change down; for logFC SIK2: SIK2 (Q9H0K1), down
[3] = target: T2, protein kinases (human kinome) (Homo sapiens, UniProt O14976)
T2 sequence (O14976 1-1311): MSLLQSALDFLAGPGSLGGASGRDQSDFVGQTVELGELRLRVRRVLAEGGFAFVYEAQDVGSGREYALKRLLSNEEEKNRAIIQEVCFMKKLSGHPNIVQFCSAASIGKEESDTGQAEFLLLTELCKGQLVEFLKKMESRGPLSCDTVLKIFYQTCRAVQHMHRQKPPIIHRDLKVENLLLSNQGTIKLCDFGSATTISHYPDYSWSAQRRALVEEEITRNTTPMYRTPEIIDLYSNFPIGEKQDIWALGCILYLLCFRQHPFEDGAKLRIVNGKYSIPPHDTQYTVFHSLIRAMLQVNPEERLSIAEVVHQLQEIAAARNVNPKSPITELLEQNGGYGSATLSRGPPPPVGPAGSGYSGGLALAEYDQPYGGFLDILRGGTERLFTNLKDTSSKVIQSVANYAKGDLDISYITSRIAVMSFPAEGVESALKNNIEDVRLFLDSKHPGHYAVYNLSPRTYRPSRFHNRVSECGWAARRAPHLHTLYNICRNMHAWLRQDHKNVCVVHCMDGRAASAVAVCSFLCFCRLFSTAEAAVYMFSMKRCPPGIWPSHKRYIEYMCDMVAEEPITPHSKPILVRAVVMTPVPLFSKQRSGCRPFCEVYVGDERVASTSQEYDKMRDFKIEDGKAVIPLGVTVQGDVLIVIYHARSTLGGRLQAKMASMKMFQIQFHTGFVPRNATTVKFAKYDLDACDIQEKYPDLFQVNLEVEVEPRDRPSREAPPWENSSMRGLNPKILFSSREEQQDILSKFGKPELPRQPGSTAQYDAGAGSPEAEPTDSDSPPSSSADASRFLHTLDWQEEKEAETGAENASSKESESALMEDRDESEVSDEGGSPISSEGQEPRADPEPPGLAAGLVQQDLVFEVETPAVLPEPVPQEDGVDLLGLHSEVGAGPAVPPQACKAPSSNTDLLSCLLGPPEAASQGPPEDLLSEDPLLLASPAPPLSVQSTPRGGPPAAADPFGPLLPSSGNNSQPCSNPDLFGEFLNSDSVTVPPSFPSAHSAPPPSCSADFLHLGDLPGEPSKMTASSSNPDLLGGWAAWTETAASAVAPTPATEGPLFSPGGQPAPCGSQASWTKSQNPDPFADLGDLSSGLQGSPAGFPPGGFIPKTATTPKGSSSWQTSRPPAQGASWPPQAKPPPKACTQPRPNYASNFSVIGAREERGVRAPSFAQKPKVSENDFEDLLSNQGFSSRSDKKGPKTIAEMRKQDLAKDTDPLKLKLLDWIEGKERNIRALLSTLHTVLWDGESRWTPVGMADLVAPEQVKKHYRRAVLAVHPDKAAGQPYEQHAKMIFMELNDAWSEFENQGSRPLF

[4] = GAK (O14976), experiment wp195, down
[5] = GAK, accession O14976, experiment wp195, direction of change down
[6] = GAK (O14976), direction down, experiment wp045
[7] = GAK (O14976), direction down, experiment wp071
[8] = GAK (O14976), direction down, experiment wp081

Sequence of protein kinases (human kinome) (Homo sapiens, UniProt Q9H0K1) (Q9H0K1 whole entry): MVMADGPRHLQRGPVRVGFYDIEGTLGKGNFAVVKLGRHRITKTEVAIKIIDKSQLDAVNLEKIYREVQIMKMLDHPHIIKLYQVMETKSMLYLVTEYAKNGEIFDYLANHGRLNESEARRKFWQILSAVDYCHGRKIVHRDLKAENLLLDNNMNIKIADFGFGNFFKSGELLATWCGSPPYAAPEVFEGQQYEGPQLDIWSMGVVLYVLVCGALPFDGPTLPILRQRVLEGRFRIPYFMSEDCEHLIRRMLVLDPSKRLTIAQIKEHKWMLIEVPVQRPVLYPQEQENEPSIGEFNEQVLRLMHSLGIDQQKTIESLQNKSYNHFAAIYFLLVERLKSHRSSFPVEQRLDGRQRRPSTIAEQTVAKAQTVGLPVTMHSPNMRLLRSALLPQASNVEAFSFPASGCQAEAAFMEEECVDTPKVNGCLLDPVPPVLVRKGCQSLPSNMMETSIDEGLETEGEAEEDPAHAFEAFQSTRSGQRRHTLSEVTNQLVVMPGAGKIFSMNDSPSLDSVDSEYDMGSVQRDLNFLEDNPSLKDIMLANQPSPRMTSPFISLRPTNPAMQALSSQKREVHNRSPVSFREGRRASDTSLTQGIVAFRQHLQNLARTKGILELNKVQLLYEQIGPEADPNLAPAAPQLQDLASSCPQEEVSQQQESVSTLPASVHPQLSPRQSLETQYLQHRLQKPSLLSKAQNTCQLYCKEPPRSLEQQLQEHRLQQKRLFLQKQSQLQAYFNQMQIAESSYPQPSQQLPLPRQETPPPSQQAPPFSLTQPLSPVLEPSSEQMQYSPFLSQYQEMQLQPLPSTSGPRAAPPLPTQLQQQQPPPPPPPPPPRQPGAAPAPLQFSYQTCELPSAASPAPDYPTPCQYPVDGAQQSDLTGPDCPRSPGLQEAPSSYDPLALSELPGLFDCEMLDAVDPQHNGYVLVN

O=C(COc1cccc2c1C(=O)N(C1CCC(=O)NC1=O)C2=O)NCCCCCCCN1CCc2cc(Nc3ncc(C4CC4)c(NCCCNC(=O)C4CCC4)n3)ccc2C1 (centres unmarked) [BSJ.04.178]
logFC [1]: −1.683
logFC ULK1 ([1]; experiment wp134): −1.683
logFC of SIK2 ([2]; experiment wp134): −1.351
logFC SIK2 (Q9H0K1) ([2]; experiment wp134): −1.351
logFC of GAK (O14976) ([3]; Experiment wp134, down): −2.402
logFC GAK ([3]; GAK (O14976), direction down, experiment wp134): −2.402

Cc1ncsc1-c1ccc([C@H](C)NC(=O)[C@@H]2C[C@@H](O)CN2C(=O)[C@@H](NC(=O)CCCCCN2CCc3cc(Nc4ncc(C5CC5)c(NCCCNC(=O)C5CCC5)n4)ccc3C2)C(C)(C)C)cc1 [BSJ.05.026]
logFC [1]: −0.4424
logFC ULK1 ([1]; experiment wp195): −0.4424
logFC of SIK2 ([2]; experiment wp195): −0.9472
logFC SIK2 (Q9H0K1) ([2]; experiment wp195): −0.9472
logFC GAK [3, 4]: −0.5819
logFC GAK [3, 5]: −0.6819

CS(=O)(=O)Nc1cccc(-c2csc3cnc(Nc4ccc(N5CCN(CCCCCOc6cccc7c6C(=O)N(C6CCC(=O)NC6=O)C7=O)CC5)cc4)nc23)c1 (centres unmarked) [DB0614, N-(3-(2-((4-(4-(5-((2-(2,6-Dioxopiperidin-3-yl)-1,3-dioxoisoindolin-4-yl)oxy)pentyl)piperazin-1-yl)phenyl)amino)thieno[3,2-d]pyrimidin-7-yl)phenyl)methanesulfonamide]
logFC [1]: −0.869 and −1.105
logFC ULK1 ([1]; experiment wp045): −0.869
logFC ULK1 ([1]; experiment wp117): −1.105
logFC of SIK2 ([2]; experiment wp045): −0.5292
logFC of SIK2 ([2]; experiment wp117): −0.3766
logFC SIK2 ([2]; experiment wp045): −0.5292
logFC SIK2 (Q9H0K1) ([2]; experiment wp117): −0.3766
logFC of GAK (O14976) ([3]; Experiment wp045, down): −0.3305
logFC of GAK (O14976) ([3]; Experiment wp117, down): −0.4196
logFC GAK [3, 6]: −0.3305
logFC GAK ([3]; GAK (O14976), direction down, experiment wp117): −0.4196

Cc1ccc(NC(=O)c2cccc(C(F)(F)F)c2)cc1N1Cc2cnc(Nc3ccc(N4CCN(CCCCCCOc5cccc6c5C(=O)N(C5CCC(=O)NC5=O)C6=O)CC4)nc3)nc2N(C)C1=O (centres unmarked) [DB0663]
logFC of SIK2 ([2]; experiment wp045): −0.4765
logFC SIK2 ([2]; experiment wp045): −0.4765
logFC of GAK (O14976) ([3]; Experiment wp045, down): −0.691
logFC GAK [3, 6]: −0.691

Cc1cnc(Nc2ccc(N3CCN(CCOCCOCCNC(=O)COc4cccc5c4C(=O)N(C4CCC(=O)NC4=O)C5=O)CC3)cc2)nc1Nc1cccc(S(=O)(=O)NC(C)(C)C)c1 (centres unmarked) [JWG.118]
logFC of GAK (O14976) ([3]; Experiment wp071, down): −1.972
logFC GAK [3, 7]: −1.972

Cc1cnc(Nc2ccc(N3CCN(CCCCCCC(=O)N[C@H](C(=O)N4C[C@H](O)C[C@H]4C(=O)N[C@@H](C)c4ccc(-c5scnc5C)cc4)C(C)(C)C)CC3)cc2)nc1Nc1cccc(S(=O)(=O)NC(C)(C)C)c1 [JWG.123]
logFC of SIK2 ([2]; experiment wp195): −0.6143
logFC SIK2 (Q9H0K1) ([2]; experiment wp195): −0.6143
logFC GAK [3, 4]: −0.5246
logFC GAK [3, 5]: −0.5246

CS(=O)(=O)Nc1cccc(-c2csc3cnc(Nc4ccc(N5CCN(CCOCCOCCOc6cccc7c6C(=O)N(C6CCC(=O)NC6=O)C7=O)CC5)cc4)nc23)c1 (centres unmarked) [RSS0628]
logFC [1]: −0.5583
logFC ULK1 ([1]; experiment wp045): −0.5583

Cc1ccc(C(=O)Nc2ccc(CN3CCN(CCCOCCOCCOCCNC(=O)COc4cccc5c4C(=O)N(C4CCC(=O)NC4=O)C5=O)CC3)c(C(F)(F)F)c2)cc1C#Cc1cnc2cccnn12 (centres unmarked) [SB1.G.187]
logFC of GAK (O14976) ([3]; Experiment wp056, down): −1.543
logFC of GAK (O14976) ([3]; Experiment wp103, down): −1.478
logFC of GAK (O14976) ([3]; Experiment wp105, down): −1.088
logFC of GAK (O14976) ([3]; Experiment wp107, down): −1.768
logFC of GAK (O14976) ([3]; Experiment wp114, down): −0.3578
logFC GAK ([3]; GAK (O14976), direction down, experiment wp056): −1.543
logFC GAK ([3]; GAK (O14976), direction down, experiment wp103): −1.478
logFC GAK ([3]; GAK (O14976), direction down, experiment wp105): −1.088
logFC GAK ([3]; GAK (O14976), direction down, experiment wp107): −1.768
logFC GAK ([3]; GAK (O14976), direction down, experiment wp114): −0.3578
logFC GAK ([3]; GAK (O14976), experiment wp172, down): −1.007
logFC GAK ([3]; GAK, accession O14976, experiment wp172, direction of change down): −1.007

Cn1c(=O)c(-c2c(Cl)cccc2Cl)cc2cnc(Nc3ccc(OCCNC(=O)CCCCCCNC(=O)COc4cccc5c4C(=O)N(C4CCC(=O)NC4=O)C5=O)cc3)nc21 (centres unmarked) [SB1.G.192.1]
logFC of SIK2 ([2]; experiment wp071): −1.036
logFC of SIK2 ([2]; experiment wp081): −1.196
logFC of SIK2 ([2]; experiment wp131): −0.9342
logFC SIK2 ([2]; experiment wp071): −1.036
logFC SIK2 (Q9H0K1) ([2]; experiment wp081): −1.196
logFC SIK2 (Q9H0K1) ([2]; experiment wp131): −0.9342
logFC of GAK (O14976) ([3]; Experiment wp071, down): −1.765
logFC of GAK (O14976) ([3]; Experiment wp081, down): −1.409
logFC of GAK (O14976) ([3]; Experiment wp131, down): −1.475
logFC GAK [3, 7]: −1.765
logFC GAK [3, 8]: −1.409
logFC GAK ([3]; GAK (O14976), direction down, experiment wp131): −1.475

CC(C)S(=O)(=O)c1ccccc1Nc1nc(Nc2ccc(N3CCN(CCOCCNC(=O)CNc4ccc5c(c4)C(=O)N(C4CCC(=O)NC4=O)C5=O)CC3)cc2)ncc1Cl (centres unmarked) [SK.3.93]
logFC of GAK (O14976) ([3]; Experiment wp016, down): −0.4334
logFC GAK ([3]; GAK (O14976), direction down, experiment wp016): −0.4334

CC(C)S(=O)(=O)c1ccccc1Nc1nc(Nc2ccc(N3CCN(CCOCCOCCC(=O)NCCNc4cccc5c4CN(C4CCC(=O)NC4=O)C5=O)CC3)cc2)ncc1Cl (centres unmarked) [TL13.97]
logFC [1]: −1.877
logFC ULK1 ([1]; experiment wp137): −1.877

Cc1ccc(C(=O)Nc2ccc(CN3CCN(CCOCCOCCNC(=O)CNc4cccc5c4C(=O)N(C4CCC(=O)NC4=O)C5=O)CC3)c(C(F)(F)F)c2)cc1C#Cc1cnc2cccnn12 (centres unmarked) [TL13.150]
logFC of GAK (O14976) ([3]; Experiment wp081, down): −1.014
logFC GAK [3, 8]: −1.014
